In brackets after ≈: the same amount, converted by molar mass.
How the values were obtained:
[1] = tested on: DLD (human colon adenocarcinoma); assay: Cytotoxicity assay, DLD cells; type: cell-based; details: Homo sapiens, 72 h, 3 days incubation, by interpolation
Procedure: (§1) The cytotoxic activities of compounds against KB (human mouth epidermoid carcinoma), DLD (human colon adenocarcinoma), NCI-H661 (human lung large cell carcinoma), Hepa (human hepatoma), and HepG2/A2 (human hepatoblastoma) cells were assayed by the […] assay as previously described. The cells for assay were cultured in RPMI-1640 medium supplemented with […] in an incubator at 37 °C. The cytotoxicity assay depends on the binding of methylene blue to fixed monolayers of cells at pH 8.5, washing the monolayer, and releasing the dye by lowering the pH value. Samples and control standard drugs were prepared at a concentration of 1, 10, 40, and 100 μg/mL. After seeding 2880 cells/well in a 96-well microplate for 3 h, 20 μL of sample or standard agent was placed in each well and incubated at 37 °C for 3 days. After removing the medium from the microplates, the cells were fixed with 10% formaldehyde in 0.9% saline for 30 min, then dyed with 1% (w/v) methylene blue in 0.01 M borate-buffer (100 μL/well) for 30 min. The 96-well plate was dipped into a 0.01 M borate-buffer solution four times in order to remove the dye. Then, 100 μL/well of EtOH-0.1 M HCl (1:1) was added as a dye eluting solvent, and the absorbance was measured on a microtiter plate reader (Dynatech, MR 7000) at a wavelength of 650 nm. […] Doxorubicin was used as a standard compound.

[2] = tested on: NCI-H661 (human lung large cell carcinoma); assay: Cytotoxicity assay, NCI-H661 cells; type: cell-based; details: 72 h, 3 days incubation, by interpolation
Procedure: as §1

Hepa (human hepatoma) = assay: Cytotoxicity assay, Hepa cells; type: cell-based; details: 72 h, 3 days incubation, by interpolation
Procedure: as §1

[3] = molecular target: T1, human DNA topoisomerase II (Homo sapiens, UniProt P11388); assay: Relaxation assay of topoisomerase II (supercoiled pBR322); type: biochemical; details: for IC50: five concentrations 5, 10, 25, 50 and 100 μg/mL, read-out: Inhibition of DNA topoisomerase II IC50 (converted)
T1 construct: purchased TopoGen
Procedure: (§2) Topoisomerases I and II (topo I and II) assays were measured by assessing relaxation of supercoiled pBR322 plasmid DNA according to [24]. […] In summary, topo I (TopoGen) was mixed with the test sample and 10° volume of assay buffer (100 mM Tris-HCl, 10 mM EDTA, 1.5 M NACl, 1.0% BSA, […], and 50% glycerol), and then supercoiled DNA (pBR322) was added. In topo II assay, the mixture contained test sample and buffer including 50 mM Tris-HCl, 120 mM KCl, 10 mM MgCl2, 0.5 mM ATP, 0.5 mM dithiothreitol, 2 μg BSA, pBR322 plasmid DNA (0.25 μg), and 3U of topo II (TopoGen) in final volume of 20 μL. After incubation of topo I or topo II mixture for 30 min at 37 °C, 2 λ 10% SDS and 2.5 λ proteinase K were added for 1 h. The reaction mixtures were electrophoresed on a 2% agarose gel (50 V, 20 min; 100 V, 30 min; 110 V, 30 min) and stained with ethidium bromide. Finally, by a densitometer of ImageMaster® (Fujifilm thermal imaging system, FTI-500), the gels were directly scanned and the area representing supercoiled DNA was calculated.

[4] = tested on: KB (human mouth epidermoid carcinoma); assay: Cytotoxicity assay, KB cells; type: cell-based; details: 72 h, 3 days incubation, by interpolation
Procedure: as §1

[5] = molecular target: T2, human DNA topoisomerase I (Homo sapiens, UniProt P11387); assay: Relaxation assay of topoisomerase I (supercoiled pBR322); type: biochemical; details: five concentrations 5, 10, 25, 50 and 100 μg/mL; read-out: Inhibition of DNA topoisomerase I IC50 (converted)
T2 construct: purchased TopoGen
T2 sequence (P11387 1-765): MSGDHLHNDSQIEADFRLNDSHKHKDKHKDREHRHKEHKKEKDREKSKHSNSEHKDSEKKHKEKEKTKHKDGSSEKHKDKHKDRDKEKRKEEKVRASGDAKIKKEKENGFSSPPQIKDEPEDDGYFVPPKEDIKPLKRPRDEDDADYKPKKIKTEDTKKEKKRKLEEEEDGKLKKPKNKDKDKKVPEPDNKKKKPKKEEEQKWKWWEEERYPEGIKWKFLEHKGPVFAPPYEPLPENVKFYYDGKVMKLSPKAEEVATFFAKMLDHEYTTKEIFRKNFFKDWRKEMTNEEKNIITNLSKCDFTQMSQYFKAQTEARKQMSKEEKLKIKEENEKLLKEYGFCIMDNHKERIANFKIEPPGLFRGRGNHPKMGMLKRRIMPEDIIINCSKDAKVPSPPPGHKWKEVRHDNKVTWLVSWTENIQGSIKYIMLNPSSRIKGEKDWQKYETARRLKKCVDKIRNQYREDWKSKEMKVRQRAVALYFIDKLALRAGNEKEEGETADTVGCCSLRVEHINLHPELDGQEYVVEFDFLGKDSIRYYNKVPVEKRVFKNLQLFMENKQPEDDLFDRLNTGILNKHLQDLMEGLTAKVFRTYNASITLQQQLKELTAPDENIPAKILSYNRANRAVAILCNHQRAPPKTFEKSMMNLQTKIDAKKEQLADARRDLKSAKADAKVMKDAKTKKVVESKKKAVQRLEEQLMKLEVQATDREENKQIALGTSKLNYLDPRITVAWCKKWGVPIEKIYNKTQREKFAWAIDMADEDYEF
Procedure: as §2

[6] = tested on: HepG2/A2 (human hepatoma); assay: Cytotoxicity assay, HepG2/A2 cells; type: cell-based; details: Homo sapiens, 72 h; HepG2/A2 cells, 3 days incubation, by interpolation
Procedure: as §1

human tumor cell lines = assay: Cytotoxicity assay, tumor cell panel (cell line not specified); type: cell-based; details: positive control
Procedure: The cytotoxic activities of compounds against KB (human mouth epidermoid carcinoma), DLD (human colon adenocarcinoma), NCI-H661 (human lung large cell carcinoma), Hepa (human hepatoma), and HepG2/A2 (human hepatoblastoma) cells were assayed by the MTT{3-(4,5-dimethylthiazole-2-yl)-2,5-diphenyltetrazolium bromide} colorimetric assay as previously described. The cells for assay were cultured in RPMI-1640 medium supplemented with […] in an incubator at 37 °C. The cytotoxicity assay depends on the binding of methylene blue to fixed monolayers of cells at pH 8.5, washing the monolayer, and releasing the dye by lowering the pH value. Samples and control standard drugs were prepared at a concentration of 1, 10, 40, and 100 μg/mL. After seeding 2880 cells/well in a 96-well microplate for 3 h, 20 μL of sample or standard agent was placed in each well and incubated at 37 °C for 3 days. After removing the medium from the microplates, the cells were fixed with 10% formaldehyde in 0.9% saline for 30 min, then dyed with 1% (w/v) methylene blue in 0.01 M borate-buffer (100 μL/well) for 30 min. The 96-well plate was dipped into a 0.01 M borate-buffer solution four times in order to remove the dye. Then, 100 μL/well of EtOH-0.1 M HCl (1:1) was added as a dye eluting solvent, and the absorbance was measured on a microtiter plate reader (Dynatech, MR 7000) at a wavelength of 650 nm. […]

T1 sequence (P11388 whole entry): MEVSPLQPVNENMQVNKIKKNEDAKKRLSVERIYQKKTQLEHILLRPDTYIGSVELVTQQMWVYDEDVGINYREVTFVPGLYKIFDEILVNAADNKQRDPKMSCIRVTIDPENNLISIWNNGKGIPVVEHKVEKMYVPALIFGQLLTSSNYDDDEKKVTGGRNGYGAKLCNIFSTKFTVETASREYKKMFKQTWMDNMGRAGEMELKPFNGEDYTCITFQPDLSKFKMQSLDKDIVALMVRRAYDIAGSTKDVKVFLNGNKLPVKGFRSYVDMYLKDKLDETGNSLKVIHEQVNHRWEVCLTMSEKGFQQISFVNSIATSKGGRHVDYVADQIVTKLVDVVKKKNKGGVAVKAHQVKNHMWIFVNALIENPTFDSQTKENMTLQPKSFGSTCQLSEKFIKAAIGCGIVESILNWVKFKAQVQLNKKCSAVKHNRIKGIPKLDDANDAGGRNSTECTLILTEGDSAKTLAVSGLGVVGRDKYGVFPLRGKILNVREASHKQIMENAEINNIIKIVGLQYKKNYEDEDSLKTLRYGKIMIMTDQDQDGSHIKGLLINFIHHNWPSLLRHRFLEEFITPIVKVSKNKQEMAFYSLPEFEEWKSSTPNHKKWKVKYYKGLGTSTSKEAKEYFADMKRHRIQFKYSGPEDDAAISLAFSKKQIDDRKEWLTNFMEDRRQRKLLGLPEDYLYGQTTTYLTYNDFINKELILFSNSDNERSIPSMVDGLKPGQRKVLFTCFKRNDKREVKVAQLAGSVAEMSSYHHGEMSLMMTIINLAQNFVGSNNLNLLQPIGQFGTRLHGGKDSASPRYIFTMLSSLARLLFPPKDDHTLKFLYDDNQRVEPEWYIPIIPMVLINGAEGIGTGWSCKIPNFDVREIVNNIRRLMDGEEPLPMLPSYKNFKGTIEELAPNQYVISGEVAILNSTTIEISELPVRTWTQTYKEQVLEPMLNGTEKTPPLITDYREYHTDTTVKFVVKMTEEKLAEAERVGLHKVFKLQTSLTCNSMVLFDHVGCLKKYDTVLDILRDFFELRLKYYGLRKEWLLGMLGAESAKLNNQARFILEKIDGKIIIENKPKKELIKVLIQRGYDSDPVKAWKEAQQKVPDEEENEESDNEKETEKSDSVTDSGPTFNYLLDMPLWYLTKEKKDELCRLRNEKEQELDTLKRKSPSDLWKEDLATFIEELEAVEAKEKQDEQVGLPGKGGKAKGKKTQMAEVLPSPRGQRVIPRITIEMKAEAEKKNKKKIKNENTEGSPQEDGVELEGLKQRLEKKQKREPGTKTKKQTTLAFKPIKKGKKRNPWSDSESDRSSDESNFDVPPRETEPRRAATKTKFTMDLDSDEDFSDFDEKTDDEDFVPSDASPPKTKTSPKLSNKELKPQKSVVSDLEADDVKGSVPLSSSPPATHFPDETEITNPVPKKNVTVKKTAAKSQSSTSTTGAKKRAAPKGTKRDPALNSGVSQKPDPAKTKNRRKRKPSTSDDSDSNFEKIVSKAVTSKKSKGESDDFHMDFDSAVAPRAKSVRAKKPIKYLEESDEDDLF

Row | Structure (SMILES) | IC50 [1] | melting point | IC50 [2] | IC50 (Hepa (human hepatoma)) | IC50 [3] | IC50 [4] | IC50 [5] | IC50 [6] | inhibition of DNA topoisomerase II (in words) ([3]; compared with etoposide) | IC50 (human tumor cell lines)
1 | CCCCCCCCCCCCCCCCn1c2ccccc2c2cc(C3=NCCc4c3[nH]c3ccccc43)ccc21 [Compound 16, 1-(9′-Hexadecyl-3′-carbazolyl)-3,4-dihydro-β-carboline] | > 20 µg/mL | 90 to 92 °C | > 20 µg/mL | > 20 µg/mL | > 179 µM | > 20 µg/mL | > 179 µM | > 60 µg/mL | – | –
2 | CCCCCCCCCCCCCCCCCCCCn1c2ccccc2c2cc(C3=NCCc4c3[nH]c3ccccc43)ccc21 [Compound 18, 1-(9′-Eicosyl-3′-carbazolyl)-3,4-dihydro-β-carboline] | > 20 µg/mL | 91 to 93 °C | > 20 µg/mL | > 20 µg/mL | 9.09 µM | > 20 µg/mL | > 162 µM | > 60 µg/mL | great activity | –
3 | COc1cccc2c1C(=O)c1c(O)c3c(c(O)c1C2=O)C[C@@](O)(C(=O)CO)C[C@@H]3O[C@H]1C[C@H](N)[C@H](O)[C@H](C)O1 [Doxorubicin] | – | – | – | – | – | – | – | – | – | 0.1 µg/mL (≈ 0.184 µM)
